{
  "source": "patent US20100331269A1",
  "about": "“TRITERPENES DERIVATIVES AND USES THEREOF AS ANTITUMOR AGENTS OR ANTI-INFLAMMATORY AGENTS” (priority 2006, published 2010)",
  "key": {"[1]": {"system": "Lewis lung carcinoma", "experiment": "In vivo antitumoral activity against Lewis lung cancer-bearing mice", "design": "species or system C57BL/6 mouse", "conditions": "day 13", "experimental": "Cell lines and mice preparation: The Lewis lung carcinoma cell lines (#CRL-1642, lot # 4372266, ATCC) and the C57BL/6 mouse strain (Charles River Inc., St-Constant, Qc) were used. Cells were grown to 90% confluence in complete DMEM medium containing Earle's salts and L-glutamine (Mediatech Cellgro, Va.), 10% foetal bovine serum (Hyclone), vitamins (1×), penicillin (100 I.U./mL) and streptomycin (100 μg/mL), essential amino acids (1×) and sodium pyruvate (1×) (Mediatech Cellgro, Va.). Cells were then harvested with up and down only. Cells were counted using a hemacytometer and resuspended in DMEM medium without SVF. 100 μL of a solution containing 1×10^7 cells/mL was inoculated subcutaneously in the right flank of each 6 weeks old mouse on day zero.\nThe experimental mice were weighed daily.\nData analysis: In vivo antitumor activity was evaluated according to the parameters as follows (Miot-Noirault, E. et al. Invest. New Drugs 2004, 22, 369-378):\n(a) Calculated tumour weight (CTW): The CTW of each tumour was estimated from two-dimensional measurements performed once a day with a slide calliper, according to the formula: CTW (mg)=(L×W^2)/2 with L=length in mm and W=width in mm. Differences in CTW between treated and control groups (DMSO) were analyzed for significance using the U Wilcoxon-Mann-Whitney test and Student t-test. Values of p<0.05 were considered statistically significant.\n(b) Treated/Control value (T/C) and Tumour Growth Inhibition (TGI):The T/C was calculated as the ratio of the mean CTW of TW of drug-treated mice versus controls: T/C=(CTW of the drug-treated group on Day X/CTW of the control group on Day X)×100. TGI is 100−(T/C) value."}, "[2]": {"system": "PA-1 human ovary teratocarcinoma cells", "experiment": "Cytotoxicity, resazurin metabolism assay, PA-1", "type": "cell-based", "conditions": "mean ± SD", "source_text": "Human lung carcinoma (A-549), human colon adenocarcinoma (DLD-1), human normal fibroblasts (WS1), mice melanoma (B16-F1), Human glioma (U-251), Human hepatocellular carcinoma (HEP G2), Human prostate adenocarcinoma (PC-3), Human ovary teratocarcinoma metastatic (PA-1), Human breast adenocarcinona metastatic (MDA-MB-231), Human breast adenocarcinoma (MCF-7) and Human malignant melanoma (SK-MEL-2) cell lines were obtained from the American Type Culture Collection (ATCC). All cell lines were cultured in minimum essential medium containing Earle's salts and L-glutamine (Mediatech Cellgro, Va.), to which was added 10% fetal bovine serum (Hyclone), vitamins (1×), penicillin (100 I.U./mL) and streptomycin (100 μg/mL), essential amino acids (1×) and sodium pyruvate (1×) (Mediatech Cellgro, Va.). Cells were kept at 37° C. in a humidified environment containing 5% CO2.\nExponentially growing cells were plated in 96-well microplates (Costar, Corning Inc.) at a density of 5×10^3 cells per well in 100 μL of culture medium and were allowed to adhere for 16 hours before treatment. Increasing concentrations of each compound in DMSO (Sigma-Aldrich) were then added (100 μL per well) and the cells were incubated for 48 h. […] Cytotoxicity was assessed using resazurin (O'Brien, J. et al., Eur. J. Biochem. 2000, 267, 5421-5426) on an automated 96-well Fluoroskan Ascent F1™ plate reader (Labsystems) using excitation and emission wavelengths of 530 nm and 590 nm, respectively. Fluorescence was proportional to the cellular metabolic activity in each well. Survival percentage was defined as the fluorescence in experimental wells compared to that in control wells after subtraction of blank values. Each experiment was carried out three times in triplicata. IC50 results were expressed as mean±standard deviation.\nCompounds presented in Table 5 below were also tested in the following tumour cell lines: U-251 (Human glioma), HEP G2 (Human hepatocellular carcinoma), PC-3 (Human prostate adenocarcinoma), PA-1 (Human ovary teratocarcinoma metastatic), MDA-MB-231 (Human breast adenocarcinona metastatic), MCF-7 (Human breast adenocarcinoma) and SK-MEL-2 (Human malignant melanoma)."}, "[3]": {"system": "A-549 cells", "experiment": "Cytotoxicity, Hoechst DNA assay, A-549", "type": "cell-based, human", "conditions": "± SD", "method_in_brief": "(§1)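 Cells grown at 37 °C, 5% CO2, in MEM with 10% FBS. Compound cytotoxicity was measured by Hoechst DNA staining. Activity is expressed as IC50, the concentration inhibiting 50% of cell growth.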"}, "[4]": {"system": "B16-F1 cells", "experiment": "Cytotoxicity, Hoechst DNA assay, B16-F1", "type": "cell-based, mouse", "conditions": "± SD", "method_in_brief": "as §1"}},
  "note": "Marks after values point to notes of the source that are not given here.",
  "data": [
    {"smiles": "C=C(C)[C@@H]1CC[C@]2(C(=O)O)CC[C@]3(C)[C@H](CC[C@@H]4[C@@]5(C)CC[C@H](O[C@@H]6O[C@@H](C)[C@H](O)[C@@H](O)[C@H]6O)C(C)(C)[C@@H]5CC[C@]43C)[C@@H]12", "note": "[Compound 22, 3-O-α-L-Rhamnopyranoside of betulinic acid]", "values": [
      {"measurement": "CTW (calculated tumour weight)", "setting": "[1]; 50 mg/kg IP every 3-4 days", "value": "297 ± 98", "unit": "mg"},
      {"measurement": "T/C (Treated/Control)", "setting": "[1]; 50 mg/kg IP", "value": 91, "unit": "%"},
      {"measurement": "TGI (Tumour Growth Inhibition)", "setting": "[1]; 50 mg/kg IP", "value": 9, "unit": "%"},
      {"measurement": "CTW (calculated tumour weight)", "setting": "[1]; 100 mg/kg IP every 3-4 days", "value": "178 ± 53^e mg"},
      {"measurement": "T/C (Treated/Control)", "setting": "[1]; 100 mg/kg IP", "value": 55, "unit": "%"},
      {"measurement": "TGI (Tumour Growth Inhibition)", "setting": "[1]; 100 mg/kg IP", "value": 45, "unit": "%"},
      {"measurement": "CTW (calculated tumour weight)", "setting": "[1]; 200 mg/kg IP every 3-4 days", "value": "192 ± 50^e mg"},
      {"measurement": "T/C (Treated/Control)", "setting": "[1]; 200 mg/kg IP", "value": 59, "unit": "%"},
      {"measurement": "TGI (Tumour Growth Inhibition)", "setting": "[1]; 200 mg/kg IP", "value": 41, "unit": "%"},
      {"measurement": "IC50", "setting": "[2]", "value": "8 ± 1", "unit": "µM"},
      {"measurement": "IC50", "setting": "[3]", "value": "2.6 ± 0.3", "unit": "µM"},
      {"measurement": "IC50", "setting": "[4]", "value": "4.2 ± 0.5", "unit": "µM"}
    ]}
  ]
}
